35 molecules from paper PMC6835155, “Lessons from LIMK1 enzymology and their impact on inhibitor design” (Biochemical Journal, 2019) can be followed below.

One test addresses T1, LIMK2KD (Homo sapiens, UniProt P53671).
T1 construct: The cDNA coding for LIMK2 residues 330 to 632 was PCR amplified; His6 (N, cleaved yes); made in house; host or cells: baculovirus; Sf9 for virus, TriEx insect cells for expression
The test can be described thus: Differential (dynamic) scanning fluorimetry (DSF) assay, LIMK2KD. The format is binding. The note with it: LIMK2KD, compound 10 µM, single shot; for ΔTm at 10 µM: read-out: TM Shift LIMK2 (K).

A further test has as its target T2, LIMK1KD (Homo sapiens, UniProt P53667).
T2 construct: His6 (N, cleaved yes); made in house; host or cells: baculovirus; Sf9 for virus, TriEx insect cells for expression
Nature of the test: Differential (dynamic) scanning fluorimetry (DSF) assay, LIMK1KD. In kind it is binding. The settings on record: 2 µM LIMK1KD, compound 10 µM, single shot; for ΔTm at 10 µM: read-out: TM Shift LIMK1 (K).

SMILES strings stand for the structures. Counter-ions that a name gives are not always drawn.

T1 sequence (P53671 330-632): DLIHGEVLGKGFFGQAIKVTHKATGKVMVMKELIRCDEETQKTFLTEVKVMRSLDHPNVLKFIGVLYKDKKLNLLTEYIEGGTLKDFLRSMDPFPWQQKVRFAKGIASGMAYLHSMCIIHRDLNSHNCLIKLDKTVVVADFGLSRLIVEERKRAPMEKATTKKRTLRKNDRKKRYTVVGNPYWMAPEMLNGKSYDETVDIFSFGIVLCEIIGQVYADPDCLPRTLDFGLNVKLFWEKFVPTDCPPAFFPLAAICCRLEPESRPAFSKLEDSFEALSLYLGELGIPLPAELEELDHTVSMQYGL
T2 sequence (P53667 330-637): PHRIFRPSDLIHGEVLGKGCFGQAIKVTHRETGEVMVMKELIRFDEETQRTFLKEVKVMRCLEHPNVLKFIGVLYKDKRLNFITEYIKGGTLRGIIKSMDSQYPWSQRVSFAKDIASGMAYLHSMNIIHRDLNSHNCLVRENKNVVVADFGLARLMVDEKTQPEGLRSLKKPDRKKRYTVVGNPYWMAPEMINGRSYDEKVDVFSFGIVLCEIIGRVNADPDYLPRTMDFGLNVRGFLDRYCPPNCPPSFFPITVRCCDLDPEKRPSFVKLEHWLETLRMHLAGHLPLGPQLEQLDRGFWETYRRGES

In the case of `O=C(NC[C@H](O)CO)c1ccncc1Nc1ccc(I)cc1F` [Pimasertib (AS-703026), Pimasertib], the ΔTm at 10 µM was determined as 2.1 °C at LIMK2KD and 0.8 °C on LIMK1KD.
The matching figures for `Cc1ccc(C(=O)Nc2ccc(CN3CCN(C)CC3)c(C(F)(F)F)c2)cc1C#Cc1cnc2cccnn12` [Ponatinib (AP24534), Ponatinib]: 4.6 °C and 5 °C.
As for `CC(C)(C)c1cc(NC(=O)Nc2ccc(-c3cn4c(n3)sc3cc(OCCN5CCOCC5)ccc34)cc2)no1` [Quizartinib (AC220), Quizartinib], the ΔTm at 10 µM on LIMK2KD is 1.3 °C; at LIMK1KD it was -1.4 °C.
As to `COc1ccc(F)c(F)c1C(=O)c1cnc(NC2CCN(S(C)(=O)=O)CC2)nc1N` [R547], on LIMK2KD, the “TM Shift LIMK2 (K)” value was -0.2 K. Also, on LIMK1KD, the “TM Shift LIMK1 (K)” value is given as 0.1 K.
`Cn1c(Nc2ccc(C(F)(F)F)cc2)nc2cc(Oc3ccnc(-c4ncc(C(F)(F)F)[nH]4)c3)ccc21` [RAF265 (CHIR-265)]: the ΔTm at 10 µM at LIMK2KD was 5.1 °C; at LIMK1KD, 1.1 °C.
With `O=C(NCc1cccc(O)c1)Nc1nc(-c2ccncc2)cs1` [RKI-1447], the “TM Shift LIMK2 (K)” value at LIMK2KD is reported as 0.8 K. Further, the “TM Shift LIMK1 (K)” value at LIMK1KD was determined as 1.4 K.
For the molecule `Cc1cnc(NC(=O)Nc2cc(Br)c(C)cc2OC[C@@H]2CNCCO2)cn1` [Rabusertib], the “TM Shift LIMK2 (K)” value on LIMK2KD (10 µM) is given as 0.2 K. Besides, the “TM Shift LIMK1 (K)” value on LIMK1KD is -1.1 K.
For `CC(C)(C)Cn1c(N)nc2ccc(-c3[nH]c(C(C)(C)C)nc3-c3ccc(F)cc3)nc21` [Ralimetinib], the ΔTm at 10 µM came out at 3.1 °C at LIMK2KD and 3.2 °C at LIMK1KD.
With `CO[C@H]1C[C@@H]2CC[C@@H](C)[C@@](O)(O2)C(=O)C(=O)N2CCCC[C@H]2C(=O)O[C@H]([C@H](C)C[C@@H]2CC[C@@H](O)[C@H](OC)C2)CC(=O)[C@H](C)/C=C(\C)[C@@H](O)[C@@H](OC)C(=O)[C@H](C)C[C@H](C)/C=C/C=C/C=C/1C` [Rapamycin (Sirolimus), Rapamycin], the ΔTm at 10 µM at LIMK2KD was 0 °C; at LIMK1KD it was -0.1 °C.
In the case of `COc1cc(F)c(F)c(Nc2ccc(I)cc2F)c1NS(=O)(=O)C1(C[C@H](O)CO)CC1` [Refametinib], the ΔTm at 10 µM was 1.1 °C on LIMK2KD and -1 °C at LIMK1KD.
In the case of `CNC(=O)c1cc(Oc2ccc(NC(=O)Nc3ccc(Cl)c(C(F)(F)F)c3)c(F)c2)ccn1` [Regorafenib (BAY 73-4506), Regorafenib], the ΔTm at 10 µM stood at 0.7 °C at LIMK2KD and 0 °C at LIMK1KD.
The matching figures for `CO[C@H]1C[C@@H]2CC[C@@H](C)[C@@](O)(O2)C(=O)C(=O)N2CCCC[C@H]2C(=O)O[C@H]([C@H](C)C[C@@H]2CC[C@@H](OP(C)(C)=O)[C@H](OC)C2)CC(=O)[C@H](C)/C=C(\C)[C@@H](O)[C@@H](OC)C(=O)[C@H](C)C[C@H](C)/C=C/C=C/C=C/1C` [Ridaforolimus (Deforolimus, MK-8669), Ridaforolimus]: 0.2 °C and 0.1 °C.
The matching figures for `COc1cc(OC)c(/C=C/S(=O)(=O)Cc2ccc(OC)c(NCC(=O)O)c2)c(OC)c1` [Rigosertib (ON-01910), Rigosertib]: 1.6 °C and 2.7 °C.
For `CS(=O)(=O)O.Cn1cc(C2=C(c3cn(CCCSC(=N)N)c4ccccc34)C(=O)NC2=O)c2ccccc21` [Ro 31-8220 Mesylate], the “TM Shift LIMK2 (K)” value on LIMK2KD is reported as 1.2 K. Further, the “TM Shift LIMK1 (K)” value on LIMK1KD was 1.6 K.
Consider `CN(C)C[C@@H]1CCn2cc(c3ccccc32)C2=C(C(=O)NC2=O)c2cn(c3ccccc23)CCO1` [Ruboxistaurin], for which the ΔTm at 10 µM at LIMK2KD turned out to be 0.4 °C; on LIMK1KD it was 1 °C.
As for `N#CC[C@H](C1CCCC1)n1cc(-c2ncnc3[nH]ccc23)cn1` [Ruxolitinib (INCB018424), Ruxolitinib], the figures for the ΔTm at 10 µM at LIMK2KD and at LIMK1KD were 2.6 °C and 1.6 °C, respectively.
As for `N#CC[C@@H](C1CCCC1)n1cc(-c2ncnc3[nH]ccc23)cn1` [S-Ruxolitinib (INCB018424), S-Ruxolitinib], the figures for the ΔTm at 10 µM on LIMK2KD and on LIMK1KD were -0.7 °C and 0.9 °C, respectively.
`CCn1c(N)c(C(=O)NC)c(=O)c2ccc(C#C[C@@](C)(O)COC)nc21` [SAR131675]: the “TM Shift LIMK2 (K)” value at LIMK2KD is 2.9 K. Besides, the “TM Shift LIMK1 (K)” value on LIMK1KD was determined as 0.1 K.
As to `CCn1c(=O)c(-c2cc[nH]n2)cc2c(C)nc(N)nc21` [SAR245409 (XL765)], the “TM Shift LIMK2 (K)” value at LIMK2KD (10 µM) stood at 6.6 K. Besides, on LIMK1KD, the “TM Shift LIMK1 (K)” value is reported as 1.0 K.
Take `Oc1ccc(-c2nc(-c3ccc(F)cc3)c(-c3ccncc3)[nH]2)cc1` [SB202190 (FHPI)]: the “TM Shift LIMK2 (K)” value at LIMK2KD is on record as 0.2 K. Further, on LIMK1KD, the “TM Shift LIMK1 (K)” value is listed as 0.7 K.
Regarding `C[S+]([O-])c1ccc(-c2nc(-c3ccncc3)c(-c3ccc(F)cc3)[nH]2)cc1` (stereo not shown) [SB203580], the ΔTm at 10 µM at LIMK2KD stood at 3.3 °C; at LIMK1KD, 1.3 °C.
In the case of `Cn1cc(C2=C(c3ccc(Cl)cc3Cl)C(=O)NC2=O)c2ccccc21` [SB216763], the ΔTm at 10 µM on LIMK2KD is 1.3 °C; on LIMK1KD it was 0.7 °C.
On to `O=C1NC(=O)C(c2ccccc2[N+](=O)[O-])=C1Nc1ccc(O)c(Cl)c1` [SB415286], for which the “TM Shift LIMK2 (K)” value on LIMK2KD came out at 0.9 K. Besides, the “TM Shift LIMK1 (K)” value at LIMK1KD came to 1.7 K.
`CN(C)CCOc1ccc(-c2nc(-c3ccncc3)c(-c3ccc4c(c3)CC/C4=N\O)[nH]2)cc1` [SB590885]: the ΔTm at 10 µM at LIMK2KD was 1 °C; on LIMK1KD, 0.1 °C.
In the case of `O=C(Nc1ccc2[nH]nc(-c3ccncc3)c2c1)[C@@H]1CCN(CC(=O)N2CCN(c3ccc(-c4ncccn4)cc3)CC2)C1` [SCH772984], the ΔTm at 10 µM stood at 0.1 °C on LIMK2KD and 0.3 °C on LIMK1KD.
As for `CN1CCC(CNc2ccc3ncc(-c4cccc(OC(F)(F)F)c4)n3n2)CC1` [SGI-1776 free base], on LIMK2KD, the “TM Shift LIMK2 (K)” value was 1.4 K. The “TM Shift LIMK1 (K)” value on LIMK1KD was 1.7 K.
Consider `Cn1cc(-c2ccc3nnc(Sc4ccc5ncccc5c4)n3n2)cn1` [SGX-523], for which the ΔTm at 10 µM on LIMK2KD was 0.2 °C; on LIMK1KD, -0.4 °C.
Turning to `Oc1ccc(Nc2nc(-c3ccc(Cl)cc3)cs2)cc1` [SKI II], at LIMK2KD, the “TM Shift LIMK2 (K)” value turned out to be 1.4 K. In addition, the “TM Shift LIMK1 (K)” value at LIMK1KD is recorded as -0.4 K.
As for `N#C/C(=C(/N)Sc1ccc(N)cc1)c1ccccc1C(F)(F)F` [SL-327], the “TM Shift LIMK2 (K)” value on LIMK2KD is given as 0.7 K. Also, at LIMK1KD, the “TM Shift LIMK1 (K)” value turned out to be 0.7 K.
Regarding `O=C1NC(=O)/C(=C/c2cccc(C(F)(F)F)c2)S1` [SMI-4a], the “TM Shift LIMK2 (K)” value at LIMK2KD is -0.4 K. Further, at LIMK1KD, the “TM Shift LIMK1 (K)” value is reported as -0.2 K.
With `CC(C)(C)c1cnc(CSc2cnc(NC(=O)C3CCNCC3)s2)o1` [SNS-032 (BMS-387032)], the ΔTm at 10 µM was -0.3 °C at LIMK2KD and 0.1 °C on LIMK1KD.
The like results for `O=C(Nc1cccc(Cl)c1)Nc1ncc(CCNc2ncnc3ccsc23)s1` [SNS-314 Mesylate] were, in that order, 0.8 °C and -0.5 °C.
Regarding `Oc1c2ccccc2c2c3c(cccc13)N=N2` [SP600125], the ΔTm at 10 µM was found to be 2.1 °C at LIMK2KD and 1 °C on LIMK1KD.
In the case of `COc1c(C)c(C(=O)c2ccc(N)c(C(=O)[O-])c2)n2ccccc12.[Na+]` [SSR128129E], the “TM Shift LIMK2 (K)” value at LIMK2KD is 2.4 K. At LIMK1KD, the “TM Shift LIMK1 (K)” value is recorded as -0.6 K.
Turning to `Cc1[nH]c(/C=C2\C(=O)Nc3ccc(S(=O)(=O)N(C)c4cccc(Cl)c4)cc32)c(C)c1C(=O)N1CCN(C)CC1` [SU11274], the figures for the ΔTm at 10 µM on LIMK2KD and at LIMK1KD were -0.2 °C and 1.4 °C, respectively.
